Measured values as given in patent publication US6100053A, “Microbial transglutaminases, their production and use” (priority 1994, dated 2000).

Tests used:
[1] = tested on: TGase from Bacillus mycoides; experiment: PMSF inhibition, putrescine assay; assay type: biochemical; details: 1.6 mM PMSF; 1 h, 30° C., pH 8.5, α-casein + EDTA; -PMSF = 100
Description: (§1) Each of these washes takes place for 5 min. […] The washed filters are counted directly in scintillation vials.
(§2) A putrescine control assay was performed to investigate whether TGases from different bacterial strains are sensitive to PMSF (phenyl methyl sulfonyl fluoride).
(§3) The assay was run under optimized conditions (see examples 1-3), i.e. 1 h incubation at 30° C., pH 8.5 (2% α-casein+EDTA in 100 mM modified Britton-Robinson-buffer 0.1 M, pH 8.5). Final concentration of PMSF was 1.6 mM. As control an assay including propanol was included: propanol is the solvent of PMSF. This assay ensures that solvent effects are excluded. The assay contained 0.9 M 2-propanol i.e. the same concentration as in PMSF containing assay (addition of 8 μl propanol from 13 M instead of 8 μl PMSF in 2-propanol).

[2] = tested on: TGase from Bacillus firmus; experiment: PMSF inhibition, putrescine assay; assay type: biochemical; details: 1.6 mM PMSF; 1 h, 30° C., pH 8.5, α-casein + EDTA; -PMSF = 100
Description: as §1, §2, §3

[3] = molecular target: T1, TGase from Streptomyces lydicus (Streptomyces nigrescens, UniProt A0ABY7I822); experiment: PMSF inhibition, putrescine assay; assay type: biochemical
T1 construct: mature 331 aa, N-terminus […]
T1 sequence (A0ABY7I822 88-418): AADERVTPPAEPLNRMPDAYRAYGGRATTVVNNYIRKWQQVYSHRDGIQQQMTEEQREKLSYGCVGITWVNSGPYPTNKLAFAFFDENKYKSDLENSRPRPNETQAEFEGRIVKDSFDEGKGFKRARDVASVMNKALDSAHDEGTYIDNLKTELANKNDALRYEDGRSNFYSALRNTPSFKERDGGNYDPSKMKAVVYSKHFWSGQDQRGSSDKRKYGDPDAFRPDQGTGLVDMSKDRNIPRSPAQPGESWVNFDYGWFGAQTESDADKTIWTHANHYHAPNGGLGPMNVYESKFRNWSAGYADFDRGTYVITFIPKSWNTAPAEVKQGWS
Description: as §1, §2, §3

[4] = tested on: TGase from Bacillus badius; experiment: PMSF inhibition, putrescine assay; assay type: biochemical; details: 1.6 mM PMSF; 1 h, 30° C., pH 8.5, α-casein + EDTA; -PMSF = 100
Description: as §1, §2, §3

[5] = tested on: TGase from Bacillus aneurinolyticus; experiment: PMSF inhibition, putrescine assay; assay type: biochemical; details: 1.6 mM PMSF; 1 h, 30° C., pH 8.5, α-casein + EDTA; -PMSF = 100
Description: as §1, §2, §3

[6] = tested on: TGase from strain Moo5A10; experiment: PMSF inhibition, putrescine assay; assay type: biochemical, Moo5A10 (DSM 10094); details: 1.6 mM PMSF; 1 h, 30° C., pH 8.5, α-casein + EDTA; -PMSF = 100
Description: as §1, §2, §3

[7] = tested on: TGase from Bacteridium (CBS 495.74); experiment: PMSF inhibition, putrescine assay; assay type: biochemical, Bacteridium sp. CBS 495.74; details: 1.6 mM PMSF; 1 h, 30° C., pH 8.5, α-casein + EDTA; -PMSF = 100
Description: as §1, §2, §3

[8] = molecular target: T2, purified transglutaminase from S. mobaraense (Streptomyces mobaraensis, UniProt P81453); experiment: PMSF sensitivity of purified transglutaminase; assay type: biochemical, Streptoverticillium mobaraense
T2 sequence (P81453 77-407): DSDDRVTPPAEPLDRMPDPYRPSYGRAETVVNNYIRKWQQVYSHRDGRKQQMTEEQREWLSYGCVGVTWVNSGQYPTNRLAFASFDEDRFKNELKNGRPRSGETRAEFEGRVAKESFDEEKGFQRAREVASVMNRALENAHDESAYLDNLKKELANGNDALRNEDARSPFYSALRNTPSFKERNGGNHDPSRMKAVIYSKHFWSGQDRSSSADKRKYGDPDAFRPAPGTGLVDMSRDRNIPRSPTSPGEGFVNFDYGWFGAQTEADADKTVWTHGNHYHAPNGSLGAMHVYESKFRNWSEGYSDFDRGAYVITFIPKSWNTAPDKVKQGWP
Description: as §2

[9] = tested on: TGase from Bacteridium (DSM 10093); experiment: PMSF inhibition, putrescine assay; assay type: biochemical, Bacteridium sp. DSM 10093; details: 1.6 mM PMSF; 1 h, 30° C., pH 8.5, α-casein + EDTA; -PMSF = 100
Description: as §1, §2, §3

[10] = molecular target: transglutaminase from S. mobaraense (Streptomyces mobaraensis, UniProt P81453); details: 1 mM inhibitor, preincubation 30 min at 25° C.; cited from earlier work
[11] = molecular target: Ca2+-independent transglutaminase from Streptomyces platensis (Streptomyces platensis, UniProt A5PHK5); details: 50 μM inhibitor, nine fold molar excess to cysteine; 2 h at room temperature in the putrescine assay; duplicate
Sequence of Ca2+-independent transglutaminase from Streptomyces platensis (A5PHK5 88-418): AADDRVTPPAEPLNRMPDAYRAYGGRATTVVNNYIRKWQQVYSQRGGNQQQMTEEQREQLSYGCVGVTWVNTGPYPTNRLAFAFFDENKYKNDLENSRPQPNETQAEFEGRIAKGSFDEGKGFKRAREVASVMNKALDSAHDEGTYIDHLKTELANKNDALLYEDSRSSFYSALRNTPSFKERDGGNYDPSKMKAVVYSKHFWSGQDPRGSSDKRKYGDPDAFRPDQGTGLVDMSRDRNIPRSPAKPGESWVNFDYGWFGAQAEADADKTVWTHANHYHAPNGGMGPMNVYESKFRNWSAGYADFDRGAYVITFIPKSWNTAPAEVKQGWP

| Compound | Relative activity (%) +PMSP [1] | Relative activity (%) +PMSP [2] | Relative activity (%) +PMSP ([3]; 1.6 mM PMSF, 1 h, 30° C., pH 8.5, α-casein + EDTA, -PMSF = 100) | sensitivity to PMSF ([3]; purified transglutaminase) | Relative activity (%) +PMSP [4] | Relative activity (%) +PMSP [5] | Relative activity (%) +PMSP [6] | Relative activity (%) +PMSP [7] | sensitivity to PMSF [8] | Relative activity (%) +PMSP [9] | residual activity [10] | residual activity [11] |
| --- | --- | --- | --- | --- | --- | --- | --- | --- | --- | --- | --- | --- |
| O=S(=O)(F)Cc1ccccc1 [PMSF, phenylmethylsulfonylfluoride] | 35% | 55% | 175% | insensitive | 62% | 47% | 75% | 75% | insensitive | 75% | – | – |
| O=C(O)CI [mono-iodoacetic acid] | – | – | – | – | – | – | – | – | – | – | 76% | no residual activity |
